Assay results from patent US8501805B2, “Substituted alpha-L-bicyclic nucleosides” (Isis Pharmaceuticals, Inc., priority 2008, dated 2013).
[αh] = substituted alpha-L-bicyclic nucleoside, publication subscript αh; [αj] = substituted alpha-L-bicyclic nucleoside, publication subscript αj; [αl] = substituted alpha-L-bicyclic nucleoside, publication subscript αl; [αm] = substituted alpha-L-bicyclic nucleoside, publication subscript αm; [αg] = code of the source, not defined here; d = 2'-deoxy (DNA)

Assay: 12mer Tm study
Format: binding
Conditions: for Tm (° C.): all linkages phosphodiester; for ΔTm/mod (° C.): change in Tm per modification
From the text: All internucleoside linkages are phosphodiester and all nucleosides not followed by a subscript are 2′-deoxyribonucleosides. The nucleosides followed by a subscript are defined below.

| Substance | Tm (° C.) [°C] | ΔTm/mod (° C.) |
| --- | --- | --- |
| 07/438704: 12mer GCGTTUTTTGCT, all 2′-deoxyribonucleosides, all linkages phosphodiester (DNA, all phosphodiester, methylation of C not given here) [reference compound] | 46.7 | +0.0 °C |
| 07/438711: 12mer GCGTTUαlTTTGCT, all linkages phosphodiester (GCGTTUTTTGCT; sugars from the 5' end d5 [αl]1 d6, all phosphodiester, methylation of C not given here) [reference compound] | 50.2 | +4.6 °C |
| 07/449244: 12mer GCGTTUαjTTTGCT, all linkages phosphodiester (GCGTTUTTTGCT; sugars from the 5' end d5 [αj]1 d6, all phosphodiester, methylation of C not given here) | 46.7 | +1.1 °C |
| 07/449245: 12mer GCGTTUαjTαjTTGCT, all linkages phosphodiester (GCGTTUTTTGCT; sugars from the 5' end d5 [αj]2 d5, all phosphodiester, methylation of C not given here) | 47.1 | +1.0 °C |
| 07/449246: 12mer GCGTTUαhTTTGCT, all linkages phosphodiester (GCGTTUTTTGCT; sugars from the 5' end d5 [αh]1 d6, all phosphodiester, methylation of C not given here) | 49.0 | +3.4 °C |
| 07/449247: 12mer GCGTTUαhTαhTTGCT, all linkages phosphodiester (GCGTTUTTTGCT; sugars from the 5' end d5 [αh]2 d5, all phosphodiester, methylation of C not given here) | 53.7 | +4.1 °C |
| 07/454306: 12mer GCGTTUαlTαlTTGCT, all linkages phosphodiester (GCGTTUTTTGCT; sugars from the 5' end d5 [αl]2 d5, all phosphodiester, methylation of C not given here) [reference compound] | 45.6 | +4.6 °C |
| 07/454307: 12mer GCGTTUαmTTTGCT, all linkages phosphodiester (GCGTTUTTTGCT; sugars from the 5' end d5 [αm]1 d6, all phosphodiester, methylation of C not given here) | 51.3 | +5.5 °C |
| 07/454308: 12mer GCGTTUαmTαmTTGCT, all linkages phosphodiester (GCGTTUTTTGCT; sugars from the 5' end d5 [αm]2 d5, all phosphodiester, methylation of C not given here) | 55.2 | +4.8 °C |
| 07/454309: 12mer GCGTTUαgTTTGCT, all linkages phosphodiester (GCGTTUTTTGCT; sugars from the 5' end d5 [αg]1 d6, all phosphodiester, methylation of C not given here) | 49.7 | +4.2 °C |
| 07/454310: 12mer GCGTTUαgTαgTTGCT, all linkages phosphodiester (GCGTTUTTTGCT; sugars from the 5' end d5 [αg]2 d5, all phosphodiester, methylation of C not given here) | 53.6 | +4.2 °C |
